Consider three compounds from article PMC4527605 (ACS infectious diseases, 2015).

Converted amounts (≈) assume the structure as drawn.

Data set [1] concerns M. tuberculosis H37Rv. The experiment in a line: M. tuberculosis H37Rv growth inhibition. It counts as cell-based, Mycobacterium tuberculosis. Particulars: for MIC: Mycobacterium tuberculosis, H37RV, read-out: Mt = M. tuberculosis H37Rv, MIC, estimated visually from 2x serial dilutions.
The subject of data set [2] is M. smegmatis. The experiment in a line: M. smegmatis growth inhibition. The class given is cell-based, Mycobacterium smegmatis. The following applies: Mycolicibacterium smegmatis, read-out: Ms = M. smegmatis, IC50.
The test system of data set [3] is M. tuberculosis Erdman. The experiment in a line: M. tuberculosis Erdman growth inhibition. It counts as cell-based, Mycobacterium tuberculosis. Particulars: estimated visually from 2x serial dilutions.
Data set [4] concerns M. tuberculosis H37Rv. The following applies: cited from earlier work.
In data set [5] the test system is Trypanosoma brucei. The experiment in a line: T. brucei 427.
Data set [6] in a line: HepG2 cell growth inhibition. It counts as cell-based. Particulars: human, HepG2 cells.
Data set [7] concerns S. cerevisiae. The data set can be described thus: S. cerevisiae growth inhibition. The class given is cell-based. Particulars: Saccharomyces cerevisiae, read-out: Sc = S. cerevisiae, IC50.
A short description of data set [8]: HEK293T cell growth inhibition. It counts as cell-based. The following applies: human, HEK293T cells.
Data set [9] deals with B. subtilis. The data set can be described thus: B. subtilis growth inhibition. It counts as cell-based. The following applies: Bacillus subtilis, read-out: Bs = B. subtilis, IC50.
Data set [10] deals with E. coli. The experiment in a line: E. coli growth inhibition. The class given is cell-based. Particulars: Escherichia coli, read-out: Ec = E. coli, IC50.
In data set [11] the test system is inner mitochondrial membrane potential, Δψ. The data set can be described thus: Mitochondrial membrane potential. It counts as cell-based, Trypanosoma brucei. Particulars: PCF, oligomycin 2 μg/ml, Figure 4C.

Regarding `CC[C@@H](CO)NCCN[C@@H](CC)CO` [compound 1, ethambutol], the MIC in [1] was 2 µg/mL (≈ 9.79 µM). Also, the IC50 in data set [2] came to 1 µg/mL (≈ 4.89 µM).

Regarding `CC(C)=CCC/C(C)=C/CNCCNC1C2CC3CC(C2)CC1C3` (centres unmarked) [compound 2, SQ109], the “MtE = M. tuberculosis Erdman, MIC” value was 0.50 µg/mL in [3] and 0.1 to 0.5 µg/mL in [3] (listed as SQ109). In addition, the MIC in data set [1] is 0.1 to 0.5 µg/mL (≈ 0.303 to 1.51 µM). Further, the “Mt = M. tuberculosis H37Rv, MIC” value in data set [1] (estimated visually from 2x serial dilutions) was 0.15 µg/mL. In addition, the “MIC against M. tuberculosis (previous work)” value in [4] is 0.15 µg/mL (≈ 0.454 µM). Besides, the IC50 in [5] (Trypanosoma brucei, 72 h, read-out: Tb = Trypanosoma brucei, IC50) turned out to be 0.078 ± 0.001 µg/mL (≈ 0.236 µM); in data set [2], 3.1 µg/mL (≈ 9.38 µM); in data set [7] it was 1.1 µg/mL (≈ 3.33 µM); in [9], 7.6 µg/mL (≈ 23 µM); in [10] it was 2.8 µg/mL (≈ 8.47 µM). Besides, the “SI = CC50(HEK293T)/IC50(Tb)” value in data set [5] (selectivity index HEK293T vs T. brucei) stood at 24. For the same compound, the “SI = CC50(HepG2)/IC50(Tb)” value in data set [5] (selectivity index HepG2 vs T. brucei) is on record as 15. In addition, the CC50 turned out to be 1.2 µg/mL (≈ 3.63 µM) in data set [6] and 1.9 µg/mL (≈ 5.75 µM) in data set [8].

On to `CC[C@H]1/C=C/C=C/C[C@@H](C)[C@H](O)[C@@](C)(O)C(=O)[C@@H](C)[C@H](O)[C@@H](C)C(=O)[C@@H](C)[C@H](O)[C@@H](C)/C=C/C(=O)O[C@@H]2[C@H](C)[C@H](CC1)O[C@]1(CC[C@H](C)[C@H](C[C@@H](C)O)O1)[C@H]2C` [oligomycin], for which, in data set [11], the “effect on ADP phosphorylation by T. brucei mitochondria (Δψ decrease after ADP)” value is given as “inhibited”.

What is called MIC is the smallest concentration in the dilution series that meets the test's criterion for growth inhibition. The IC50 is the concentration needed to halve the response being measured. Broadly, the CC50 is the concentration that lowers cell viability or growth by half. Read a low CC50 as greater toxicity to the cells.
